Test results taken from the NIST ThermoML archive (doi:10.1016/j.jct.2018.11.014).
± gives the expanded uncertainty stated by the source.

Settings: 101.33 kPa, Crystal, Vacuum adiabatic calorimetry

Row | Structure (SMILES) | molar entropy (10 K) | molar entropy (20 K) | molar entropy (30 K) | molar entropy (40 K) | molar entropy (50 K) | molar entropy (60 K) | molar entropy (70 K) | molar entropy (80 K) | molar entropy (90 K) | molar entropy (100 K) | molar entropy (110 K) | molar entropy (120 K) | molar entropy (130 K) | molar entropy (140 K) | molar entropy (150 K) | molar entropy (160 K) | molar entropy (170 K) | molar entropy (180 K) | molar entropy (190 K) | molar entropy (200 K) | other results
1 | O=C(CO)[C@@H](O)[C@@H](O)[C@H](O)CO [D-(-)-tagatose] | 0.24 ± 0.02 J/K/mol | 2.37 ± 0.04 J/K/mol | 6.67 ± 0.12 J/K/mol | 12.43 ± 0.2 J/K/mol | 19.05 ± 0.3 J/K/mol | 26.17 ± 0.4 J/K/mol | 33.58 ± 0.52 J/K/mol | 41.15 ± 0.63 J/K/mol | 48.83 ± 0.78 J/K/mol | 56.57 ± 0.89 J/K/mol | 64.33 ± 1 J/K/mol | 72.1 ± 1.1 J/K/mol | 79.86 ± 1.2 J/K/mol | 87.6 ± 1.4 J/K/mol | 95.33 ± 1.5 J/K/mol | 103.03 ± 1.6 J/K/mol | 110.71 ± 1.7 J/K/mol | 118.38 ± 1.8 J/K/mol | 126.03 ± 1.9 J/K/mol | 133.66 ± 2 J/K/mol | molar entropy (210 K): 141.29 ± 2.1 J/K/mol; molar entropy (220 K): 148.91 ± 2.3 J/K/mol; molar entropy (230 K): 156.53 ± 2.4 J/K/mol; molar entropy (240 K): 164.14 ± 2.5 J/K/mol; molar entropy (250 K): 171.76 ± 2.6 J/K/mol; molar entropy (260 K): 179.37 ± 2.7 J/K/mol; molar entropy (270 K): 187 ± 2.8 J/K/mol; molar entropy (280 K): 194.64 ± 3 J/K/mol; molar entropy (290 K): 202.3 ± 3.1 J/K/mol; molar entropy (298.15 K): 208.54 ± 3.2 J/K/mol; molar entropy (300 K): 209.96 ± 3.2 J/K/mol; molar entropy (310 K): 217.63 ± 3.3 J/K/mol; molar entropy (320 K): 225.31 ± 3.4 J/K/mol; molar entropy (330 K): 232.99 ± 3.5 J/K/mol
2 | O=C(CO)[C@H](O)[C@H](O)[C@H](O)CO [D-psicose] | 0.25 ± 0.02 J/K/mol | 2.96 ± 0.05 J/K/mol | 8.19 ± 0.14 J/K/mol | 14.69 ± 0.23 J/K/mol | 21.82 ± 0.34 J/K/mol | 29.28 ± 0.45 J/K/mol | 36.93 ± 0.57 J/K/mol | 44.67 ± 0.68 J/K/mol | 52.46 ± 0.83 J/K/mol | 60.26 ± 0.95 J/K/mol | 68.06 ± 1.1 J/K/mol | 75.83 ± 1.2 J/K/mol | 83.57 ± 1.3 J/K/mol | 91.28 ± 1.4 J/K/mol | 98.95 ± 1.5 J/K/mol | 106.58 ± 1.6 J/K/mol | 114.19 ± 1.8 J/K/mol | 121.76 ± 1.9 J/K/mol | 129.31 ± 2 J/K/mol | 136.83 ± 2.1 J/K/mol | molar entropy (210 K): 144.33 ± 2.2 J/K/mol; molar entropy (220 K): 151.81 ± 2.3 J/K/mol; molar entropy (230 K): 159.28 ± 2.4 J/K/mol; molar entropy (240 K): 166.73 ± 2.5 J/K/mol; molar entropy (250 K): 174.17 ± 2.6 J/K/mol; molar entropy (260 K): 181.61 ± 2.8 J/K/mol; molar entropy (270 K): 189.03 ± 2.9 J/K/mol; molar entropy (280 K): 196.45 ± 3 J/K/mol; molar entropy (290 K): 203.86 ± 3.1 J/K/mol; molar entropy (298.15 K): 209.9 ± 3.2 J/K/mol; molar entropy (300 K): 211.27 ± 3.2 J/K/mol; molar entropy (310 K): 218.67 ± 3.3 J/K/mol; molar entropy (320 K): 226.07 ± 3.4 J/K/mol; molar entropy (330 K): 233.48 ± 3.5 J/K/mol
3 | O=C(CO)[C@@H](O)[C@H](O)[C@H](O)CO [D-fructose] | 0.22 ± 0.02 J/K/mol | 2.49 ± 0.05 J/K/mol | 7.15 ± 0.12 J/K/mol | 13.3 ± 0.21 J/K/mol | 20.28 ± 0.32 J/K/mol | 27.72 ± 0.43 J/K/mol | 35.42 ± 0.54 J/K/mol | 43.25 ± 0.66 J/K/mol | 51.17 ± 0.81 J/K/mol | 59.14 ± 0.93 J/K/mol | 67.11 ± 1.1 J/K/mol | 75.09 ± 1.2 J/K/mol | 83.05 ± 1.3 J/K/mol | 91 ± 1.4 J/K/mol | 98.92 ± 1.5 J/K/mol | 106.81 ± 1.6 J/K/mol | 114.68 ± 1.8 J/K/mol | 122.52 ± 1.9 J/K/mol | 130.34 ± 2 J/K/mol | 138.14 ± 2.1 J/K/mol | molar entropy (210 K): 145.91 ± 2.2 J/K/mol; molar entropy (220 K): 153.67 ± 2.3 J/K/mol; molar entropy (230 K): 161.42 ± 2.5 J/K/mol; molar entropy (240 K): 169.16 ± 2.6 J/K/mol; molar entropy (250 K): 176.89 ± 2.7 J/K/mol; molar entropy (260 K): 184.62 ± 2.8 J/K/mol; molar entropy (270 K): 192.35 ± 2.9 J/K/mol; molar entropy (280 K): 200.07 ± 3 J/K/mol; molar entropy (290 K): 207.79 ± 3.1 J/K/mol; molar entropy (298.15 K): 214.09 ± 3.2 J/K/mol; molar entropy (300 K): 215.52 ± 3.3 J/K/mol; molar entropy (310 K): 223.26 ± 3.4 J/K/mol; molar entropy (320 K): 231.02 ± 3.5 J/K/mol; molar entropy (330 K): 238.78 ± 3.6 J/K/mol
